Results reported in US20160152579A1, “OXAZOLIDINONE DERIVATIVES AS PPAR LIGANDS” (CONSEJO SUPERIOR DE INVESTIGACIONES CIENTÍFICAS (CSIC), priority 2013, published 2016).

How the values were obtained:
[1] = molecular target: T1, human PPAR-gamma receptor (Homo sapiens, UniProt P37231); assay: Cell transfection and luciferase reporter gene assay, PPAR-gamma activation in MCF-7 cells; type: cell-based; conditions: luciferase reporter, 16 h treatment
T1 construct: expressed in transfected cells; host or cells: MCF-7 human breast cancer cells, pSG5 expression vector
T1 sequence (P37231 1-505): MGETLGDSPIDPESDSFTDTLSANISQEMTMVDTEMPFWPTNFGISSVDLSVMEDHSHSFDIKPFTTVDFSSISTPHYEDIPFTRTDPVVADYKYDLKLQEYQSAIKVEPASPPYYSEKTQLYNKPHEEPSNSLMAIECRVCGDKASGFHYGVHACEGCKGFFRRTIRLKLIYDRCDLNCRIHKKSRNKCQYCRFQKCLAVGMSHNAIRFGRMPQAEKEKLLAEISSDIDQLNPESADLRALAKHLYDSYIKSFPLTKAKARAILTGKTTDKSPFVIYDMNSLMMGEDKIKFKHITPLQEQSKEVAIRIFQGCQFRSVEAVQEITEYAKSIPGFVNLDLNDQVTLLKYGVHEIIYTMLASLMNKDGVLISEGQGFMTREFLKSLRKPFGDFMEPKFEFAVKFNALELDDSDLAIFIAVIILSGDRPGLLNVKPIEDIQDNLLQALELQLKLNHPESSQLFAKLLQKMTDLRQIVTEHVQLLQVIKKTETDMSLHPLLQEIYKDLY
Method: (§1) The reporter gene assay is an in vitro method used to determine and quantify the existence of physical interactions between proteins, useful for confirming in this case the interaction of the transcription factors PPAR-alpha with co-activator SRC-1, and PPAR-gamma with PPRE in MCF-7 cells.
(§2) For the in vitro experiments, with cell culture all the compounds were dissolved and diluted in dimethylsulfoxide (DMSO) (Sigma Aldrich Spain).
(§3) DNA constructs: Eukaryotic pSG5 expression vector (4100 base pairs, Stratagene Co.) was used as the cDNA expression vehicle for human PPAR-alpha receptor and PPAR-gamma receptor. This construction was used for the in vivo overexpression of the protein in mammalian cells.
(§4) Four copies of the human CPTI gene DR1-type RE (sequence […]) (Ref: Tinahones F J, Moreno-Santos I, Vendrell J, Chacon M R, Garrido-Sanchez L, Garcia-Wasntes E, and Macias-Gonzalez M. Obesity 2012, 20: 488-497) were individually fused with the thymidine kinase promoter in the pGL-2 Basic vector (5598 base pairs, Promega Co.), which lacks a eukaryotic promoter and contains a firefly (Photinus pyralis) luciferase reporter gene. This vector is widely used in the quantitative analysis of factors capable of regulating gene expression in mammalian cells. This pGL-2 Basic vector also has an ampicillin resistance region (gene for β-lactamase). […]

[2] = molecular target: T2, human PPAR-alpha receptor (Homo sapiens, UniProt Q07869); assay: Cell transfection and luciferase reporter gene assay, PPAR-alpha activation in MCF-7 cells; type: cell-based; conditions: luciferase reporter, 16 h treatment
T2 construct: expressed in transfected cells; host or cells: MCF-7 human breast cancer cells, pSG5 expression vector
Method: as §1, §2, §3, §4

[3] = tested on: Male Wistar albino rats; assay: In vivo assay on food ingestion, acute treatment; parameters: species or system Rattus Norvegicus; conditions: for course of the effect on food ingestion over time (30-240 min) / reduction of food ingestion: rats fasted 24 h
Method: Male Wistar albino rats (Rattus Norvegicus) from Charles Rivers Laboratories España, S. A. (Barcelona, Spain), were used, having weights ranging between 300-350 g at the start of the experiments. The animals were caged individually, in controlled temperature (22° C.) and moisture (55%) conditions under a 12-hour light/dark cycle (light off from 8:00 AM to 8:00 PM). The rats had free access to food and water in their corresponding cages. All the training and experimental sessions were carried out after 8:00 PM hours.
All the drugs were prepared in fresh conditions in a solution consisting of 5% Tween-80 in sterile physiological serum. The different doses were prepared in different vials such that Tween-80 was added after weighing the necessary amount of compound. The compound, with its corresponding volume of surfactant, was sonicated and homogenized (with the aid of a magnetic stirrer) for 15-30 minutes. Then, the necessary volume of serum was added until completing the solution.
The compounds were administered intraperitoneally (i.p.) in an acute manner in an administration volume of 1 ml per kg of animal.
Before starting the ingestion experiments, the animals were habituated to being handled. For this purpose, 48-72 hours before each experimental session, the rats were placed in cages where the base material (sawdust) was removed, and small containers with food were placed in the cages for 4 hours. After this initial habituation phase, the animals were deprived of food for 24 hours, always having free access to water.
After said fasting period, the different treatment groups were established, and the base material was removed from the cages, weighing the animals and weighing the small containers with food (commercial laboratory feed). Additionally, the water container was weighed. 15 minutes after administering the compounds, the respective weighed food container was given to each animal, and it was again weighed at different times (30, 60, 120 and 240 minutes). In one case it was weighed 24 hours after being given.
Food consumption was represented as relative accumulated consumption (g of food per kg of animal). The water containers were also weighed at the end of the experiment.

T2 sequence (Q07869 whole entry): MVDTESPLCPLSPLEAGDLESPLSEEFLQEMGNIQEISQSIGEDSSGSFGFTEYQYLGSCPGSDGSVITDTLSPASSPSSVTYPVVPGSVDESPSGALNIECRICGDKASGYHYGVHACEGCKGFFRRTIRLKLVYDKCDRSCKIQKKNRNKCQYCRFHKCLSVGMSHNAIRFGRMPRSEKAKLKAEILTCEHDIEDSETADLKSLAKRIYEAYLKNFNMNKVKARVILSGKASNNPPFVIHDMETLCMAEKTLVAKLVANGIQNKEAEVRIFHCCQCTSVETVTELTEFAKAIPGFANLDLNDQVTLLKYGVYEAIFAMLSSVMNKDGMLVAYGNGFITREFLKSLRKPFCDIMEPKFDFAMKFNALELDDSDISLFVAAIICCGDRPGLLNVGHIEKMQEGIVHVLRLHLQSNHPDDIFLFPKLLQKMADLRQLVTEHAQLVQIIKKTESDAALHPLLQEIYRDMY
T2 sequence (P19793 whole entry partner): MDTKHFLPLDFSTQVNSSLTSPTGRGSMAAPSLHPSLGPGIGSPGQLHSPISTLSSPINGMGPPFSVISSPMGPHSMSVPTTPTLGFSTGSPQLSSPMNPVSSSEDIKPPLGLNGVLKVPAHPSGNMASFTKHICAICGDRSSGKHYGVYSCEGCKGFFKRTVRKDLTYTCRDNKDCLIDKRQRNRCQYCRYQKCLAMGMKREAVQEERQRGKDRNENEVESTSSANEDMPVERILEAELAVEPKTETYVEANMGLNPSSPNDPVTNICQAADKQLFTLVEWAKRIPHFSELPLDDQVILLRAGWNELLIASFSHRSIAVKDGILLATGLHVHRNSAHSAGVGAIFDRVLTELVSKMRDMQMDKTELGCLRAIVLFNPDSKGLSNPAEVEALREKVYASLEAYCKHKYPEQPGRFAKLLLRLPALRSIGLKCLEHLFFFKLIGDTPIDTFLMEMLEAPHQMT
T2 sequence (Q15788 whole entry partner): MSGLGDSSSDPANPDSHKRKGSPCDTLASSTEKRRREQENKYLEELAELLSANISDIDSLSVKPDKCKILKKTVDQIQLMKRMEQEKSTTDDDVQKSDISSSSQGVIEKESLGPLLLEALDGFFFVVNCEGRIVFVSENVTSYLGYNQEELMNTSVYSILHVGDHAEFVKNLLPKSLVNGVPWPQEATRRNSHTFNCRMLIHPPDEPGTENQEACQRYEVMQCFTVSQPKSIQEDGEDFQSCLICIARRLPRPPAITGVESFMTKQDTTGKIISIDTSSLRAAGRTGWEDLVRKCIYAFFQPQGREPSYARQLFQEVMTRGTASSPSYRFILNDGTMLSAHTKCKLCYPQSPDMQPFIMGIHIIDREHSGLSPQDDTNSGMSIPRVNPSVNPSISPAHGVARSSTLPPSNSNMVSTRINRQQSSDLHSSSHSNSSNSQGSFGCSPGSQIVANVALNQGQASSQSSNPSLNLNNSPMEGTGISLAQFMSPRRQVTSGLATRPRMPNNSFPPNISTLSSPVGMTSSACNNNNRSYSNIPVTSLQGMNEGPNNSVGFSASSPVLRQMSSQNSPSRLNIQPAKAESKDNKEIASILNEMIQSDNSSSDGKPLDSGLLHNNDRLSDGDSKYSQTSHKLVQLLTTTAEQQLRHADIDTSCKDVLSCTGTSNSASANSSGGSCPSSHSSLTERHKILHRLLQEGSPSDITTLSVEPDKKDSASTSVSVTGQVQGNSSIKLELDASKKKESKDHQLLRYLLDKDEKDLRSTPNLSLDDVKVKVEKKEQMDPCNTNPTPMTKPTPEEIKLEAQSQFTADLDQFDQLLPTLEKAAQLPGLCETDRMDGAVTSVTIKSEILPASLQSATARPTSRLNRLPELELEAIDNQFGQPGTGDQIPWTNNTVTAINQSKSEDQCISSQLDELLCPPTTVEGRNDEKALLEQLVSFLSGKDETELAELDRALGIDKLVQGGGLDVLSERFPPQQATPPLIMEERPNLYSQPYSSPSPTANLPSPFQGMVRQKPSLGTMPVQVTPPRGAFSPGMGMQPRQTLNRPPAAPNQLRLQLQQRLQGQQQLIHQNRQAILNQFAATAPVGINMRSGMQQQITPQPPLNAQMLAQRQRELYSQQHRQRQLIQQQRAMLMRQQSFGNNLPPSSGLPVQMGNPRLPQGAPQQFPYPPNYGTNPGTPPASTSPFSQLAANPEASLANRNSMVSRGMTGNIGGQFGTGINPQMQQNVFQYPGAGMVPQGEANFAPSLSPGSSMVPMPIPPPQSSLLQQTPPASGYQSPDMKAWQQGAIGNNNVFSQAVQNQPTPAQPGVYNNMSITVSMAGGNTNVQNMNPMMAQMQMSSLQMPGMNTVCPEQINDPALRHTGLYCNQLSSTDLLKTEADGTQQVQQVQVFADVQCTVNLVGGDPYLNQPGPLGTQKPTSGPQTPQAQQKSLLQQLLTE

| SMILES | EC50 [1] | EC50 [2] | effect on accumulated food ingestion 24 hours after administration ([3]; 24 h after i.p. administration, FIG. 3) | dose dependence of the effect on food ingestion ([3]; acute i.p. administration, FIG. 2) | course of the effect on food ingestion over time (30-240 min) ([3]; acute i.p. administration) | reduction of food ingestion ([3]; effective dose 1.0 mg/kg i.p., FIG. 2) | reduction of food ingestion ([3]; effective dose 3.0 mg/kg i.p., FIG. 1) |
| --- | --- | --- | --- | --- | --- | --- | --- |
| CCCCCNC(=O)c1ccc(NC(=O)c2cccc(CN3C(=O)OC[C@H]3Cc3ccccc3)c2)cc1 [Compound 5, (R)-3-((4-benzyl-2-oxooxazolidin-3-yl)methyl)-N-(4-(pentylcarbamoyl)phenyl)benzamide] | 1.62 µM | 0.821 ± 0.139 µM | still has an effect 24 hours after administration | active in a dose-dependent manner | effect maintained over time after 240 minutes | about 50% | – |
| CC(C)(C)c1ccc(CNC(=O)c2ccc(NC(=O)c3cccc(CN4C(=O)OC[C@H]4Cc4ccccc4)c3)cc2)cc1 [Compound 1, (R)-3-((4-benzyl-2-oxooxazolidin-3-yl)methyl)-N-(4-((4-(tert-butyl)benzyl)carbamoyl)phenyl)benzamide] | 1.29 µM | 0.67 ± 0.157 µM | – | – | effect disappearing 240 minutes after the administration | – | about 50% |
